Series [1] has as its target T1, Protein farnesyltransferase (Homo sapiens, UniProt P49354+P49356). Kind of series: Inhibition of [3H]FPP incorporation into H-ras CVLS by Farnesyltransferase. The format is protein-complex assay.
The nature of series [2]: Inhibition of soft agar colony formation in H-Ras transformed cells. The format is functional, cell-based.
The nature of series [3]: Area under the curve in rats by administering perorally. The format is ADME. To be noted: rat, in vivo, po.
Series [4] in a line: Inhibition of H-Ras transformed NIH3T3 cell proliferation. The class given is functional, cell-based.
A short description of series [5]: Inhibition of COS cell proliferation. The class given is functional, cell-based.
Series [6] is described as follows: Oral bioavailability in rat. The format is ADME, organism-based. As to conditions: in vivo.
In series [7] the target is T1, Protein farnesyltransferase. Kind of series: Percent inhibition of [3H]FPP incorporation into H-ras CVLS by Farnesyltransferase at 17. The class given is protein-complex assay. As to conditions: concentration not given here.

By IC50 is commonly meant the midpoint of a concentration-inhibition curve. With `O=C(Cc1cc[n+]([O-])cc1)N1CCC([C@@H]2c3ncc(Br)cc3C=Cc3cc(Cl)cc(Br)c32)CC1`, the 50% inhibitory concentration (IC50) in series [1] worked out at 0.32 nM; in series [2], 30 nM. The compound also returned an AUC in series [3] of 15.5 µg/h/mL.
`CS(=O)(=O)N1CCC([C@@H]2c3ncc(Br)cc3C=Cc3cc(Cl)cc(Br)c32)CC1`: the IC50 in series [2] is over 500 nM. Further, the AUC in series [3] was found to be 45.4 µg/h/mL.
What is called bioavailability is dose-corrected exposure relative to a reference, in per cent. A high value points to good availability. Take `NC(=O)N1CCC(CC(=O)N2CCC([C@H]3c4ncc(Br)cc4CCc4cc(Cl)cc(Br)c43)CC2)CC1` [LONAFARNIB]: the IC50 in series [4] was 72000 nM; in series [5] it was 10 nM; in series [2] it was 70 nM. The compound also came in with a bioavailability in series [6] of 76%. The compound further gave an AUC in series [3] of 24.1 µg/h/mL.
One may read the inhibition as the relative decrease from the control value, in per cent. The low end stands for a weak effect, the high end for a strong effect. In turn, `O=C(Cc1cc[n+]([O-])cc1)N1CCC([C@H]2c3ncc(Br)cc3C=Cc3cc(Cl)cc(Br)c32)CC1` yielded an inhibition in series [7] of 44%.
Turning to `NC(=O)N1CCC(CC(=O)N2CCC([C@@H]3c4ncc(Br)cc4C=Cc4cc(Cl)cc(Br)c43)CC2)CC1`, the AUC in series [3] worked out at 7 µg/h/mL.

The values are drawn from ChEMBL document CHEMBL1138707, “Bridgehead modification of trihalocycloheptabenzopyridine leads to a potent farnesyl protein transferase inhibitor with improved oral metabolic stability” (Bioorg Med Chem Lett, 2004).
